{
  "source": "patent US20230393122A1",
  "about": "(priority 2022, published 2023)",
  "key": {"SARS-CoV-2 WT [1]": {"test_system": "SARS-CoV-2 WT", "assay": "Viral load reduction assay in naïve-eSTB cells", "assay_type": "cell-based", "details": "compared with EPSC-eSTBs"}, "SARS-CoV-2 [2]": {"test_system": "SARS-CoV-2", "details": "cited from earlier work"}, "MERS-CoV": {"test_system": "MERS-CoV", "assay_type": "cell-based", "details": "48 h.p.i., efficiency comparable to that in Vero E6 cells"}, "SARS-CoV-2 WT [3]": {"test_system": "SARS-CoV-2 WT", "assay": "Viral load reduction assay in EPSC-derived eSTB cells (qRT-PCR of supernatant viral copies)", "assay_type": "cell-based", "details": "for IC50: read-out: IC50 for SARS-CoV-2 in eSTBs"}, "[4]": {"test_system": "SARS-CoV-2 infected eSTBs", "assay_type": "cell-based, human"}, "SARS-CoV-2 [5]": {"test_system": "SARS-CoV-2", "details": "Vero E6 cells; read-out: IC50 against SARS-CoV-2 in Vero E6 cells; cited from earlier work"}},
  "note": "Where two headings read alike, the source gives them in different places.",
  "data": [
    {"smiles": "CC(C)C[C@H](NC(=O)OCc1ccccc1)C(=O)N[C@@H](C[C@@H]1CCNC1=O)C(O)S(=O)(=O)[O-].[Na+]", "note": "(some centres unmarked) [GC376]", "values": [
      {"measurement": "IC50 against SARS-CoV-2 in naïve-eSTBs", "setting": "SARS-CoV-2 WT [1]", "result": "similarly low"},
      {"measurement": "Survival of mice with a fatal SARS-CoV-2 infection", "setting": "SARS-CoV-2 [2]", "result": "increases survival"},
      {"measurement": "MERS-CoV replication in eSTBs", "setting": "MERS-CoV", "result": "effectively block"},
      {"measurement": "Viral copy in the supernatant, SARS-CoV-2 WT (FIG. 17B)", "setting": "SARS-CoV-2 WT [3]; EPSC-derived eSTB cells", "result": "dose-dependent inhibition"},
      {"measurement": "eSTB development and differentiation along PI-TB to PI-STB pseudotime trajectory", "setting": "[4]", "result": "partially rescued"}
    ]},
    {"smiles": "CCC(CC)COC(=O)[C@H](C)N[P@](=O)(OC[C@H]1O[C@@](C#N)(c2ccc3c(N)ncnn23)[C@H](O)[C@@H]1O)Oc1ccccc1", "note": "[remdesivir]", "values": [
      {"measurement": "IC50", "setting": "SARS-CoV-2 WT [3]; Severe acute respiratory syndrome coronavirus 2, 48 h", "result": "3.2 ± 0.1", "unit": "nM"}
    ]},
    {"smiles": "CC(C)C[C@H](NC(=O)OCc1ccccc1)C(=O)N[C@@H](CC1CCNC1=O)C(O)S(=O)(=O)O", "note": "(some centres unmarked) [GC376]", "values": [
      {"measurement": "IC50", "setting": "SARS-CoV-2 WT [3]", "result": "31.2 ± 5.6", "unit": "nM"},
      {"measurement": "IC50", "setting": "SARS-CoV-2 [5]", "result": 700, "unit": "nM"}
    ]}
  ]
}
